Test [1] has as its target T1, human GLP-1 receptor (Homo sapiens, UniProt P43220).
T1 construct: expressed in transfected cells; host or cells: BHK cells (parent line BHKTS13), clone FCW467-12A; membrane preparation
In words: GLP-1 receptor binding: competitive binding assay (125I-GLP-1, SPA) on isolated membranes at low and high HSA. Here is the method: The purpose of this example is to test the receptor binding of the GLP-1 derivatives in vitro. The receptor binding is a measure of affinity of a derivative for the human GLP-1 receptor.
Each derivative is added in a series of concentrations to isolated membranes containing the human GLP-1 receptor and displacement of the labelled ligand is monitored. The receptor binding is reported as the concentration at which half of the labelled ligand is displaced from the receptor, the IC50 value.
Buffer 1 consisted of 20 mM Na-HEPES plus 10 mM EDTA and pH was adjusted to 7.4. Buffer 2 consisted of 20 mM Na-HEPES plus 0.1 mM EDTA and pH was adjusted to 7.4. Assay buffer consisted of 50 mM HEPES supplemented with 5 mM EGTA, 5 mM MgCl2, 0.005% Tween 20 and pH was adjusted to 7.4. An 8% albumin stock consisted of HSA dissolved at 8% (w/v) in assay buffer. An 0.02% albumin stock consisted of HSA dissolved at 0.02% (w/v) in assay buffer.
The cells express the human GLP-1 receptor.
The cells were grown at 5% CO2 in DMEM, 10% fetal calf serum, 1% Pen/Strep (Penicillin/Streptomycin) and 1.0 mg/ml of the selection marker G418. To make a membrane preparation the cells were grown to approximately 80% confluence. The cells were washed twice in phosphate-buffered saline and harvested. The cells were pelleted using a brief centrifugation and the cell pellet was kept on ice. […] The homogenate was centrifuged for 15 minutes. The pellet was re-suspended (homogenised) in 10 ml buffer 2 and centrifuged. This step was repeated once more. The resulting pellet was re-suspended in buffer 2 and the protein concentration was determined. The membranes were aliquoted and stored at minus 80° C.
1. […] Assay continued with step 3.
2. For the receptor binding assay in the presence of high HSA (2%) 50 μl of the 8% albumin stock was added to each well of an assay plate. Assay continued with step 3.
4. Cell membrane aliquots were thawed and diluted to their working concentration. Fifty μl were added to each well in the assay plate.
5. WGA SPA beads were suspended in assay buffer at 20 mg/ml. The suspension was diluted to 10 mg/ml in assay buffer just prior to addition to the assay plate. Fifty μl were added to each well in the assay plate.
6. […] A 25 μl aliquot was reserved for measuring total counts/well.
7. The assay plate was incubated for 2 h at 30° C.
8. The assay plate was centrifuged for 10 min.
9. The assay plate was read in a Packard TopCount NXT instrument.
The data from the TopCount instrument were transferred to GraphPad Prism software. Individual replicates were analysed using non-linear regression. IC50 values were calculated by the software and reported in nM. The reported values are averages of all of the measured values for each compound.

In test [2] the target is T1, human GLP-1 receptor. In words: In vitro potency: CRE luciferase reporter gene assay in BHK cells expressing the human GLP-1 receptor. The test is classed as cell-based. As to the method:
The purpose of this example is to test the activity, or potency, of the GLP-1 derivatives in vitro. The in vitro potency is the measure of human GLP-1 receptor activation in a whole cell assay.
In vitro potency was determined by measuring the response of the human GLP-1 receptor in a reporter gene assay. The assay was performed in a stably transfected BHK cell line that expresses the human GLP-1 receptor and contains the DNA for the cAMP response element (CRE) coupled to a promoter and the gene for firefly luciferase (CRE luciferase). When the human GLP-1 receptor is activated it results in the production of cAMP, which in turn results in the luciferase protein being expressed. When assay incubation is completed the luciferase substrate (luciferin) is added and the enzyme converts luciferin to oxyluciferin to produce bioluminescence. The luminescence is measured as the readout for the assay.
The cells were cultured at 5% CO2 in cell culture medium. They were aliquoted and stored in liquid nitrogen. Before each assay an aliquot was taken up and washed twice in PBS before being suspended at the desired concentration in the assay specific buffer.
The assay buffer consisted of 2% ovalbumin and 0.2% Pluronic F-68 in assay medium.
1) Cell stocks were thawed in a 37° C. water bath.
2) Cells were washed three times in PBS.
3) Cells were counted and adjusted to 5×10^3 cells/50 μl (1×10^5 cells/ml) in assay medium. A 50 μl aliquot of cells was transferred to each well in the assay plate.
4) Stocks of the test compounds and reference compounds were diluted to a concentration of 0.2 μM in assay buffer. […] 8) A 100 μl aliquot of steadylite plus reagent was added to each well of the assay plate. 9) Each assay plate was covered with aluminum foil to protect it from light and shaken for 30 min at room temperature. 10) Each assay plate was read in a BioTek Synergy 2 Multi-Mode Reader. Calculations and Results
The data from the BioTek Synergy 2 Multi-Mode Reader were transferred to GraphPad Prism software. The software performs a non-linear regression (log(agonist) vs response (three parameters)).
A minimum of two replicates were measured for each sample. The reported EC50 values are averages of all of the measured values for each compound.
A general note: Reporter assays use an easily measured gene product as a stand-in for the process of interest.

Where [3] appears, read: Low HSA IC50, low HSA (max. 0.001% final assay concentration).
Setting [4] is: high HSA (2.0% final assay concentration), read-out: High HSA IC50.
Setting [5] is: whole cell reporter gene assay, BHK cells, human GLP-1 receptor, average of at least two replicates, read-out: EC50.

Here are results for three molecules from US11572398B2, “GLP-1 derivatives and uses thereof” (Novo Nordisk A/S, priority 2014, dated 2023).

Structures are written as SMILES. Like-named read-outs stand apart in the source and are kept apart here.

Usually IC50 stands for the concentration that inhibits the measured activity by half. By EC50 is commonly meant the concentration that produces a half-maximal response.

T1 sequence (P43220 24-463): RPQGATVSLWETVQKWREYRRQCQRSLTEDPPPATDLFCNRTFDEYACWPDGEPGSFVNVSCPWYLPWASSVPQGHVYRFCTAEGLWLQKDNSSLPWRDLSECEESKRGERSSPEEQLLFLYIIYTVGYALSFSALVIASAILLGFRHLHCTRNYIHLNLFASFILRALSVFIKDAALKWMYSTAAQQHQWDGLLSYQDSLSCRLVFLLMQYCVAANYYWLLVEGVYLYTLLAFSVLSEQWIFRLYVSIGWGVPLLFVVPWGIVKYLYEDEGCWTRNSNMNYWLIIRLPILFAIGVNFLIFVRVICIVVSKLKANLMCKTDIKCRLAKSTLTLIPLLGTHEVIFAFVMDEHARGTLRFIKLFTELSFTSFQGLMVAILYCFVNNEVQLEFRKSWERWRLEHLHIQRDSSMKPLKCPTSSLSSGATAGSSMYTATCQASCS

Turning to `CC[C@H](C)[C@H](NC(=O)[C@H](Cc1ccccc1)NC(=O)[C@H](CCC(=O)O)NC(=O)[C@H](CCCNC(=N)N)NC(=O)[C@H](C)NC(=O)[C@H](C)NC(=O)[C@H](CCC(N)=O)NC(=O)[C@H](CCC(=O)O)NC(=O)[C@H](CCC(=O)O)NC(=O)[C@H](CC(C)C)NC(=O)[C@H](Cc1ccc(O)cc1)NC(=O)[C@H](CO)NC(=O)[C@H](CO)NC(=O)[C@@H](NC(=O)[C@H](CC(=O)O)NC(=O)[C@H](CO)NC(=O)[C@@H](NC(=O)[C@H](Cc1ccccc1)NC(=O)[C@@H](NC(=O)CNC(=O)[C@H](CCC(=O)O)NC(=O)C(C)(C)NC(=O)[C@@H](N)Cc1c[nH]cn1)[C@@H](C)O)[C@@H](C)O)C(C)C)C(=O)N[C@@H](C)C(=O)N[C@@H](Cc1c[nH]c2ccccc12)C(=O)N[C@@H](CC(C)C)C(=O)N[C@H](C(=O)N[C@@H](CCCNC(=N)N)C(=O)NCC(=O)N[C@@H](CCCNC(=N)N)C(=O)N[C@@H](CCCCNC(=O)CN(CCCNC(=O)COCCOCCNC(=O)COCCOCCNC(=O)COCCOCCNC(=O)COCCOCCNC(=O)COCCOCCNC(=O)CC[C@H](NC(=O)[C@H]1CC[C@H](CNC(=O)CCCCCCCCCCCCCCCS(=O)(=O)O)CC1)C(=O)O)CCCNC(=O)COCCOCCNC(=O)COCCOCCNC(=O)COCCOCCNC(=O)COCCOCCNC(=O)COCCOCCNC(=O)CC[C@H](NC(=O)[C@H]1CC[C@H](CNC(=O)CCCCCCCCCCCCCCCS(=O)(=O)O)CC1)C(=O)O)C(=O)O)C(C)C` [Example 23, N{Epsilon-37}-[2-[bis[3-[[2-[2-[2-[[2-[2-[2-[[2-[2-[2-[[2-[2-[2-[[2-[2-[2-[[(4S)-4-carboxy-4-[[4-[(16-sulfohexadecanoylamino)methyl]cyclohexanecarbonyl]amino]butanoyl]amino]ethoxy]ethoxy]acetyl]amino]ethoxy]ethoxy]acetyl]amino]ethoxy]ethoxy]acetyl]amino]ethoxy]ethoxy]acetyl]amino]ethoxy]ethoxy]acetyl]amino]propyl]amino]acetyl]-[Aib8,Glu22,Arg26,Arg34,Lys37]-GLP-1-(7-37)-peptide], the values for the IC50 at human GLP-1 receptor [1] (setting [3]) and at human GLP-1 receptor [1] (setting [4]) were 0.14 nM and 16 nM, respectively. Moreover, on human GLP-1 receptor [2] (setting [5]), the EC50 stood at 1.4 pM.

Regarding `CC[C@H](C)[C@H](NC(=O)[C@H](Cc1ccccc1)NC(=O)[C@H](CCC(=O)O)NC(=O)[C@H](CCCNC(=N)N)NC(=O)[C@H](C)NC(=O)[C@H](C)NC(=O)[C@H](CCC(N)=O)NC(=O)[C@H](CCC(=O)O)NC(=O)[C@H](CCC(=O)O)NC(=O)[C@H](CC(C)C)NC(=O)[C@H](Cc1ccc(O)cc1)NC(=O)[C@H](CO)NC(=O)[C@H](CO)NC(=O)[C@@H](NC(=O)[C@H](CC(=O)O)NC(=O)[C@H](CO)NC(=O)[C@@H](NC(=O)[C@H](Cc1ccccc1)NC(=O)[C@@H](NC(=O)CNC(=O)[C@H](CCC(=O)O)NC(=O)C(C)(C)NC(=O)[C@@H](N)Cc1c[nH]cn1)[C@@H](C)O)[C@@H](C)O)C(C)C)C(=O)N[C@@H](C)C(=O)N[C@@H](Cc1c[nH]c2ccccc12)C(=O)N[C@@H](CC(C)C)C(=O)N[C@H](C(=O)N[C@@H](CCCNC(=N)N)C(=O)NCC(=O)N[C@@H](CCCNC(=N)N)C(=O)N[C@@H](CCCCNC(=O)CN(CCCNC(=O)COCCOCCNC(=O)COCCOCCNC(=O)COCCOCCNC(=O)COCCOCCNC(=O)CC[C@H](NC(=O)CCCNC(=O)CCCCCCCCCCCCCCCS(=O)(=O)O)C(=O)O)CCCNC(=O)COCCOCCNC(=O)COCCOCCNC(=O)COCCOCCNC(=O)COCCOCCNC(=O)CC[C@H](NC(=O)CCCNC(=O)CCCCCCCCCCCCCCCS(=O)(=O)O)C(=O)O)C(=O)O)C(C)C` [Example 16, N{Epsilon-37}-[2-[bis[3-[[2-[2-[2-[[2-[2-[2-[[2-[2-[2-[[2-[2-[2-[[(4S)-4-carboxy-4-[4-(16-sulfohexadecanoylamino)butanoylamino]butanoyl]amino]ethoxy]ethoxy]acetyl]amino]ethoxy]ethoxy]acetyl]amino]ethoxy]ethoxy]acetyl]amino]ethoxy]ethoxy]acetyl]amino]propyl]amino]acetyl]-[Aib8,Glu22,Arg26,Arg34,Lys37]-GLP-1-(7-37)-peptide], the IC50 at human GLP-1 receptor [1] (setting [4]) was 3.3 nM; at human GLP-1 receptor [1] (low HSA (max. 0.001% final assay concentration), read-out: Low HSA IC50) it was 0.1 nM. Further, the concentration for a half-maximal effect (EC50) at human GLP-1 receptor [2] (setting [5]) is 1.7 pM.

For `CC[C@H](C)[C@H](NC(=O)[C@H](Cc1ccccc1)NC(=O)[C@H](CCC(=O)O)NC(=O)[C@H](CCCNC(=N)N)NC(=O)[C@H](C)NC(=O)[C@H](C)NC(=O)[C@H](CCC(N)=O)NC(=O)[C@H](CCC(=O)O)NC(=O)[C@H](CCC(=O)O)NC(=O)[C@H](CC(C)C)NC(=O)[C@H](Cc1ccc(O)cc1)NC(=O)[C@H](CO)NC(=O)[C@H](CO)NC(=O)[C@@H](NC(=O)[C@H](CC(=O)O)NC(=O)[C@H](CO)NC(=O)[C@@H](NC(=O)[C@H](Cc1ccccc1)NC(=O)[C@@H](NC(=O)CNC(=O)[C@H](CCC(=O)O)NC(=O)C(C)(C)NC(=O)[C@@H](N)Cc1c[nH]cn1)[C@@H](C)O)[C@@H](C)O)C(C)C)C(=O)N[C@@H](C)C(=O)N[C@@H](Cc1c[nH]c2ccccc12)C(=O)N[C@@H](CC(C)C)C(=O)N[C@H](C(=O)N[C@@H](CCCNC(=N)N)C(=O)NCC(=O)N[C@@H](CCCNC(=N)N)C(=O)N[C@@H](CCCCNC(=O)CN(CCCNC(=O)COCCOCCNC(=O)COCCOCCNC(=O)COCCOCCNC(=O)COCCOCCNC(=O)COCCOCCNC(=O)COCCOCCNC(=O)CC[C@H](NC(=O)[C@H]1CC[C@H](CNC(=O)CCCNC(=O)CCCCCCCCCCCCCCCS(=O)(=O)O)CC1)C(=O)O)CCCNC(=O)COCCOCCNC(=O)COCCOCCNC(=O)COCCOCCNC(=O)COCCOCCNC(=O)COCCOCCNC(=O)COCCOCCNC(=O)CC[C@H](NC(=O)[C@H]1CC[C@H](CNC(=O)CCCNC(=O)CCCCCCCCCCCCCCCS(=O)(=O)O)CC1)C(=O)O)C(=O)O)C(C)C` [Example 21], the IC50 on human GLP-1 receptor [1] (High HSA IC50, high HSA (2.0% final assay concentration)) was found to be 16 nM; on human GLP-1 receptor [1] (setting [3]), 0.13 nM. Further, the EC50 at human GLP-1 receptor [2] is 1.5 pM.
